Reference: patent US12152038B2, “Vasopressin receptor antagonists and products and methods related thereto” (Neumora Therapeutics, Inc., priority 2017, dated 2024)

Target: T1, V1a receptors (Rattus norvegicus, UniProt P30560)
T1 construct: Rat choroid plexus (RCP) cell lines express functional V1a receptors; endogenous in cells; host or cells: rat choroid plexus (RCP) cell line, RCP P9(18)
Experiment: AVP induced phospho-ERK measurement in rat choroid plexus (RCP) cells
Assay type: cell-based
Details: RCP cells stimulated with AVP, pERK1/2 to total ERK1/2 ratio
Method: Rat choroid plexus (RCP) cell lines express functional V1a receptors measured by increased calcium concentrations in response to V1a receptor agonists (Battle et al., Biochem. Biophys. Res. Comm. 2000).
RCP P9(18) cells were seeded 30K/well, in 100 μl growth medium containing 10% FBS in polystyrene 96-well plates and incubated at 37° C., 5% CO2 and incubated overnight. The following day, the growth medium was replaced with 50 μl pre-warmed HBSS containing 20 mM HEPES and the cells were incubated at 37° C., 5% CO2 for 1.5 hrs. 1 mM AVP (Sigma V9879) was freshly prepared in distilled water in a glass vial and diluted to 3× concentrations in HBSS containing 20 mM HEPES and 0.1% BSA in glass vials and kept on ice. […] Final concentrations of AVP: 10, 100 or 1000 nM. […] Cells were lysed with 25 μl 4×CST lysis buffer containing protease and phosphatase inhibitors, PMSF and SDS and then stored at −80° C., for 48 h. The lysates were thawed, centrifuged at 2000 g for 30 min at 4° C. and 40 μl supernatants assayed for pERK1/2 (Thr202/Tyr204; Thr185/Tyr187) and total ERK1/2 using MSD kit K15107D. The MSD ECL data for the lysates were corrected for no cell blanks, then phospho-protein levels expressed as a ratio to the total ERK1/2 level. The ratios were expressed as fold-change from the vehicle-treated control at each timepoint.

T1 sequence (P30560 whole entry): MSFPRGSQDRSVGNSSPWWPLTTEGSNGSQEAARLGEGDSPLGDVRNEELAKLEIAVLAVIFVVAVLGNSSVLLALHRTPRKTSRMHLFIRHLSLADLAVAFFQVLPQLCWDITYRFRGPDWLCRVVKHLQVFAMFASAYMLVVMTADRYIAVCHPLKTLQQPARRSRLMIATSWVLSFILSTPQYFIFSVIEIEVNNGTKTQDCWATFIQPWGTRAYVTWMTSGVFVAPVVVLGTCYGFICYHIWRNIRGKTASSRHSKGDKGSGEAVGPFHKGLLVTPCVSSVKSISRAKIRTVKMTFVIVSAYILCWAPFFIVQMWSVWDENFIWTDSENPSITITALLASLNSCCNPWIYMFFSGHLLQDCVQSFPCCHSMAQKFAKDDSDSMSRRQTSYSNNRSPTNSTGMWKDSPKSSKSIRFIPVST

IC50 (first study): 16 nM
IC50 (second study): 20 nM
Compound: CC1COc2cc(Cl)ccc2N1C(=O)N1CC2(C1)CN(c1ncccn1)C2 (single isomer, unassigned) [1-83-B, (7-chloro-3-methyl-2,3-dihydro-4H-benzo[b][1,4]oxazin-4-yl)(6-(pyrimidin-2-yl)-2,6-diazaspiro[3.3]heptan-2-yl)methanone]
